# Test results: patent US20190337927A1, “PHOTOPROTECTIVE COMPOSITIONS CONTAINING MALASSEZIA-DERIVED COMPOUNDS AND/OR CHEMICAL ANALOGS THEREOF” (priority 2018, published 2019)
# Where two headings read alike, the source gives them in different places.
# Columns and labels:
# [1] = target: T1, arylhydrocarbon receptor (AhR) (Homo sapiens, UniProt P35869); settings: cited from earlier work
# T1 sequence (P35869 11-848): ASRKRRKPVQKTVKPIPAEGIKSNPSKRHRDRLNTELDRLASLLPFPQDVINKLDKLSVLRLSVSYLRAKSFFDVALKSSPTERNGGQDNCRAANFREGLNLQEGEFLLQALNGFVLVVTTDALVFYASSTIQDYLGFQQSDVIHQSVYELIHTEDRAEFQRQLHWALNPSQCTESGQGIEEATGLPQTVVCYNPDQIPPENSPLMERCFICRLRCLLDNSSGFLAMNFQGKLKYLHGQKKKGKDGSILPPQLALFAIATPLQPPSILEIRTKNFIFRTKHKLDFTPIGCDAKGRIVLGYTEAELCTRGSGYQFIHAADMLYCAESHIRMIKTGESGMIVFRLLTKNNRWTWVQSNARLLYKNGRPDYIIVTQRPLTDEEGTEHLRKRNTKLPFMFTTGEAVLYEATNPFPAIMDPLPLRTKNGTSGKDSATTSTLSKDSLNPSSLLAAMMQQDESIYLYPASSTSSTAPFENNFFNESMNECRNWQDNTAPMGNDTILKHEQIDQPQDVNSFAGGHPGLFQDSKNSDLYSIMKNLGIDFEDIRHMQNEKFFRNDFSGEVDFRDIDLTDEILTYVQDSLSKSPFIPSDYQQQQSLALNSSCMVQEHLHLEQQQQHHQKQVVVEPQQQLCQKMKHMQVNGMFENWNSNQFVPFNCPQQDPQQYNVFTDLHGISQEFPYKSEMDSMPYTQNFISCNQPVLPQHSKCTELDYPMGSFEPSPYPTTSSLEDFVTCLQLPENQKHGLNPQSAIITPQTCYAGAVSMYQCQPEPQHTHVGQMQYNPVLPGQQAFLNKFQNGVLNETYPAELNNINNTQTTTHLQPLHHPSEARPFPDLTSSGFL
# [2] = test system: primary human melanocytes; settings: cited from earlier work
# [3] = test system: Skin Type IV female; assay: In vivo photoprotection proof of concept study: UVB-induced erythema after topical treatment; set-up: species or system human; settings: one subject
# Text: The Malassezin 1% formulation used in this study contained the following ingredients: Water (aqua)—65.939%; Dimethyl isosorbide—20.000%; Olive Oil Glycereth-8 Esters—3.000%; Glycerin—2.991%; Coconut Alkanes—2.700%; Hydroxyethyl Acrylate/Sodium Acryloyldimethyl Taurate Copolymer—1.700%; Malassezin—1.000%; Pentylene Glycol—1.000%; Phenoxyethanol—0.640%; Coco-Caprylate/Caprate—0.300%; Caprylyl Glycol—0.200%; Chlorphenesin—0.160%; Sorbitan Isostearate—0.140%; Tocopherl—0.100%; Polysorbate 60—0.080%; and Disodium EDTA—0.050%.
# A Skin Type IV […] was included in this Proof of Concept study.
# A template of 6 squares was placed on the lower left back (1.5 cm×1.5 cm) of the test subject See FIG. 7.
# Twenty-four hours after irradiation, the subject returned for MED assessment.
# A second right lower square was treated twice daily from day 4 to day 7, and a third medial square for one application on day 7. The product vehicle was applied for 7 days twice daily on the left back. The subject returned to the research center for irradiation on day 7. Each test site was irradiated with 120 mJ of UVB exposure. The subject returned in 24 hours for assessment of phototoxicity/photoprotection.
# The subject continued the experiment, receiving Malassezin 1% for a total of 14 days. […]
# [4] = test system: staphylococci; settings: cited from earlier work
# [5] = cited from earlier work
# [6] = test system: Candida albicans; settings: cited from earlier work
# [7] = test system: yeast model; settings: cited from earlier work
compound,measurement,setting,value
O=C1Nc2ccccc2/C1=C1/Nc2ccccc2C1=O [Indirubin],AhR activity,[1],agonist
"O=Cc1c(Cc2c[nH]c3ccccc23)[nH]c2ccccc12 [Malassezin, 2-(1H-indol-3-ylmethyl)-1H-indole-3-carbaldehyde]",apoptosis induction,[2],induces apoptosis
same,AhR activity,[1],agonist
same,"UV-protective properties, study conclusion",[3],UV-protective properties
O=C(c1c[nH]c2ccccc12)c1nccc2c1[nH]c1ccccc12 [Pityriacitrin],UV-protective effect,[4],UV-protective effect
same,toxicity,[4]; ranges tested,no toxicity
same,UV protective effect overall,[5]; in vitro and in vivo tests in humans,very weak
same,sun protection factor (SPF),[5]; pityriacitrin concentration 1.25% in cream,1.4
same,sun protection factor (SPF),[5]; pityriacitrin concentration 2.5% in cream,1.5
same,sun protection factor (SPF),[5]; pityriacitrin concentration 5% in cream,1.7
same,UV-protective effect,[6],UV-protective effect
same,toxicity,[6]; ranges tested,no toxicity
O=C1OC(c2c[nH]c3ccccc23)=C(c2c[nH]c3ccccc23)C1=O [Pityrialactone],UV protective properties,[7],confirmed
